These results are taken from patent US4199504A (priority 1978, dated 1980).

The nature of data set [1]: Titration pKa' in 66 percent DMF. Format: physicochemical.
In a further data set the test system is P388 leukemia. Briefly: P388 leukemia transplanted in mice, tumor inhibition or prolongation of survival. Format: in vivo. Here is the method:
(§1) The compounds of this invention and those preparable by the process disclosed herein are active against transplanted tumors in mice in vivo.
(§2) The following table--Table 1--gives the results of experiments in which mice bearing transplanted Gardner lymphosarcoma (GLS), C3 H mammary tumor, B16 melanoma, P 1534(J) leukemia, P388 leukemia or 755 adenocarcinoma were treated with a compound of this invention. In the table, column 1 gives the name of the compound; column 2, the tumor system employed; column 3, the dosage schedule and column 4, the percent inhibition of tumor growth or increased life span.

The subject of data set [2] is experimental malignancies. The note with it: naturally-occurring Vinca alkaloids; prior patents; cited from earlier work.
Another data set relates to B16 melanoma. Briefly: B16 melanoma transplanted in mice, tumor inhibition or prolongation of survival. Format: in vivo. The protocol: as §1, §2

Take `CCC1(O)CC2CN(CCc3c([nH]c4ccccc34)C(C(=O)OC)(c3cc4c(cc3OC)N(C)C3C(O)(C(=O)NCCCCNC(=O)C5(O)C(O)C6(CC)C=CCN7CCC8(c9cc(C%10(C(=O)OC)CC%11CN(CCc%12c%10[nH]c%10ccccc%12%10)CC(O)(CC)C%11)c(OC)cc9N(C)C58)C76)C(O)C5(CC)C=CCN6CCC43C65)C2)C1` (stereo not shown) [1,4-bis(4-desacetyl VLB C-3 carboxamido)butane]: in data set [1], the “pKa'” value is reported as 7.5 and the “pKa' (first value)” value is recorded as 6.6.

On to `CCC1(O)CC2CN(CCc3c([nH]c4ccccc34)C(C(=O)OC)(c3cc4c(cc3OC)N(C)C3C(O)(C(=O)NCCCCCCNC(=O)C5(O)C(O)C6(CC)C=CCN7CCC8(c9cc(C%10(C(=O)OC)CC%11CN(CCc%12c%10[nH]c%10ccccc%12%10)CC(O)(CC)C%11)c(OC)cc9N(C)C58)C76)C(O)C5(CC)C=CCN6CCC43C65)C2)C1` (stereo not shown) [1,6-bis(4-Desacetyl VLB C-3 carboxamido)hexane disulfate], for which the “Percent Inhibition or Prolongation of Survival Time” value (“Percent Inhibition or Prolongation” below) in the data set with P388 leukemia (P388, 0.9 mg./kg. × 3) stood at 27%; in the data set on P388 leukemia (P388, 1.2 mg./kg. × 3) it was 74%.

With `CCC1(O)CC2CN(CCc3c([nH]c4ccccc34)C(C(=O)OC)(c3cc4c(cc3OC)N(C)C3C(O)(C(=O)NCCCCCCNC(=O)C5(O)C(O)C6(CC)C=CCN7CCC8(c9cc(C%10(C(=O)OC)CC%11CN(CCc%12c%10[nH]c%10ccccc%12%10)CC(O)(CC)C%11)c(OC)cc9N(C)C58)C76)C(O)C5(CC)C=CCN6CCC43C65)C2)C1` (stereo not shown) [1,6-bis(4-desacetyl VLB C-3 carboxamido)hexane], in data set [1], the “pKa'” value is recorded as 7.27 and the “pKa' (first value)” value is 5.27.

Turning to `CCC1(O)CN2CCc3c([nH]c4ccccc34)C(C(=O)OC)(c3cc4c(cc3OC)N(C)C3C(O)(C(=O)OC)CC5(CC)C=CCN6CCC43C65)CC(C2)C1O` (stereo not shown) [4-desacetoxy-3'-hydroxyvinblastine], the “active in the treatment of experimental malignancies in animals” value in data set [2] is on record as “active”.

On to `CCC1(O)CC2CN(CCc3c([nH]c4ccccc34)C(C(=O)OC)(c3cc4c(cc3OC)N(C)C3C(O)(C(=O)NCCCSSCCCNC(=O)C5(O)C(O)C6(CC)C=CCN7CCC8(c9cc(C%10(C(=O)OC)CC%11CN(CCc%12c%10[nH]c%10ccccc%12%10)CC(O)(CC)C%11)c(OC)cc9N(C)C58)C76)C(O)C5(CC)C=CCN6CCC43C65)C2)C1` (stereo not shown) [bis [γ-(4-desacetyl VLB C-3 carboxamido)propyl]disulfide disulfate], for which the “Percent Inhibition or Prolongation” value in the data set on B16 melanoma (B16, 0.6 mg./kg. × 3) is 99%; with B16 melanoma (B16, 0.9 mg./kg. × 3), 61%; in the data set with B16 melanoma (B16, 1.2 mg./kg. × 3) it was 68%. Also, the “number of indefinite survivors” value with B16 melanoma (B16, 0.6 mg./kg. × 3) is recorded as 8; with B16 melanoma (B16, 0.9 mg./kg. × 3) it was 5; in the data set on B16 melanoma (B16, 1.2 mg./kg. × 3), 8.

As to `CCC1(O)CC2CN(CCc3c([nH]c4ccccc34)C(C(=O)OC)(c3cc4c(cc3OC)N(C)C3C(O)(C(=O)NCCSCCNC(=O)C5(O)C(O)C6(CC)C=CCN7CCC8(c9cc(C%10(C(=O)OC)CC%11CN(CCc%12c%10[nH]c%10ccccc%12%10)CC(O)(CC)C%11)c(OC)cc9N(C)C58)C76)C(O)C5(CC)C=CCN6CCC43C65)C2)C1` (stereo not drawn) [bis[β-(4-Desacetyl VLB C-3 carboxamido)ethyl]sulfide disulfate], the “Percent Inhibition or Prolongation” value in the data set with P388 leukemia (P388, 0.6 mg./kg. × 3) stood at 34%; with P388 leukemia (P388, 0.9 mg./kg. × 3) it was 49%; in the data set on P388 leukemia (P388, 1.2 mg./kg. × 3) it was 33%.

For `CCC12CN3CCc4c([nH]c5ccccc45)C(C(=O)OC)(c4cc5c(cc4OC)N(C)C4C(O)(C(=O)NCCSSCCNC(=O)C6(O)C(O)C7(CC)C=CCN8CCC9(c%10cc(C%11(C(=O)OC)CC%12CN(CCc%13c%11[nH]c%11ccccc%13%11)CC%11(CC)OC%12%11)c(OC)cc%10N(C)C69)C87)C(O)C6(CC)C=CCN7CCC54C76)CC(C3)C1O2` (stereo not drawn) [bis[β-(4-Desacetylleurosine C-3 carboxamido)ethyl]disulfide disulfate], the “Percent Inhibition or Prolongation” value was 46% in the data set on P388 leukemia (P388, 15 mg./kg. × 3) and 55% in the data set with P388 leukemia (P388, 30 mg./kg. × 3).

With `CCC1(O)CC2CN(CCc3c([nH]c4ccccc34)C(C(=O)OC)(c3cc4c(cc3OC)N(C)C3C(O)(C(=O)NCC[Se][Se]CCNC(=O)C5(O)C(O)C6(CC)C=CCN7CCC8(c9cc(C%10(C(=O)OC)CC%11CN(CCc%12c%10[nH]c%10ccccc%12%10)CC(O)(CC)C%11)c(OC)cc9N(C)C58)C76)C(O)C5(CC)C=CCN6CCC43C65)C2)C1` (stereo not drawn) [bis[β-(4-desacetyl VLB C-3 carboxamido)ethyl]diselenide], in data set [1], the “pKa'” value came to 7.22 and the “pKa' (first value)” value is reported as 5.10.

On to `CCC1(O)CC2CN(CCc3c([nH]c4ccccc34)C(C(=O)OC)(c3cc4c(cc3OC)N(C)C3C(O)(C(=O)NCCOCCNC(=O)C5(O)C(O)C6(CC)C=CCN7CCC8(c9cc(C%10(C(=O)OC)CC%11CN(CCc%12c%10[nH]c%10ccccc%12%10)CC(O)(CC)C%11)c(OC)cc9N(C)C58)C76)C(O)C5(CC)C=CCN6CCC43C65)C2)C1` (stereo not drawn) [bis[β-(4-desacetyl VLB C-3 carboxamido)ethyl]ether], for which, in data set [1], the “pKa'” value turned out to be 7.21 and the “pKa' (first value)” value is reported as 5.13.

Regarding `CCC12CN3CCc4c([nH]c5ccccc45)C(C(=O)OC)(c4cc5c(cc4OC)N(C)C4C(O)(C(=O)NCCSSCCNC(=O)C6(O)C(O)C7(CC)C=CCN8CCC9(c%10cc(C%11(C(=O)OC)CC%12CN(CCc%13c%11[nH]c%11ccccc%13%11)CC%11(CC)OC%12%11)c(OC)cc%10N(C)C69)C87)C(O)C6(CC)C=CCN7CCC54C76)CC(C3)C1O2` (stereo not drawn) [bis[β-(4-desacetylleurosine C-3 carboxamido)ethyl]disulfide], in data set [1], the “pKa'” value worked out at 7.0 and the “pKa' (first value)” value is given as 5.3.

On to `CCC1(O)CC2CN(CCc3c([nH]c4ccccc34)C(C(=O)OC)(c3cc4c(cc3OC)N(C)C3C(O)(C(=O)NCCCNCCCNC(=O)C5(O)C(O)C6(CC)C=CCN7CCC8(c9cc(C%10(C(=O)OC)CC%11CN(CCc%12c%10[nH]c%10ccccc%12%10)CC(O)(CC)C%11)c(OC)cc9N(C)C58)C76)C(O)C5(CC)C=CCN6CCC43C65)C2)C1` (stereo not shown) [bis[γ-(4-desacetyl VLB C-3 carboxamido)propyl]amine], for which, in data set [1], the “pKa'” value is reported as 7.17, the “pKa' (first value)” value was determined as 4.98 and the “pKa' (third printed value)” value worked out at 10.18.

On to `CCC1(O)CC2CN(CCc3c([nH]c4ccccc34)C(C(=O)OC)(c3cc4c(cc3OC)N(C)C3C(O)(C(=O)NCCCSSCCCNC(=O)C5(O)C(O)C6(CC)C=CCN7CCC8(c9cc(C%10(C(=O)OC)CC%11CN(CCc%12c%10[nH]c%10ccccc%12%10)CC(O)(CC)C%11)c(OC)cc9N(C)C58)C76)C(O)C5(CC)C=CCN6CCC43C65)C2)C1` (stereo not shown) [bis[γ-(4-desacetyl VLB C-3 carboxamido)propyl]disulfide], for which, in data set [1], the “pKa'” value is listed as 7.21 and the “pKa' (first value)” value was determined as 5.20.

In the case of `CCC1(O)CC2CN(CCc3c([nH]c4ccccc34)C(C(=O)OC)(c3cc4c(cc3OC)N(C)C3C(O)(C(=O)NCCN(CCNC(=O)C5(O)C(O)C6(CC)C=CCN7CCC8(c9cc(C%10(C(=O)OC)CC%11CN(CCc%12c%10[nH]c%10ccccc%12%10)CC(O)(CC)C%11)c(OC)cc9N(C)C58)C76)CCNC(=O)C5(O)C(O)C6(CC)C=CCN7CCC8(c9cc(C%10(C(=O)OC)CC%11CN(CCc%12c%10[nH]c%10ccccc%12%10)CC(O)(CC)C%11)c(OC)cc9N(C)C58)C76)C(O)C5(CC)C=CCN6CCC43C65)C2)C1` (stereo not drawn) [tris [β-(4-desacetyl VLB C-3 carboxamido)ethyl]amine], in data set [1], the “pKa'” value is on record as 7.25 and the “pKa' (first value)” value stood at 5.2.
